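Five compound concentrations were applied to cells in 96-well plates for 48 hours; endpoints were derived by simple linear interpolation of the resulting dose-response curve. TGI: concentration producing complete growth inhibition.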

Assay in all cases: inhibition of tumour cell growth, NCI panel, 48 h
Test [1] deals with A498 renal.
Test [2] deals with CCRF-CEM leukemia.
Test [3] deals with COLO 205 colon.
Test [4] has as its system HCT-116 colon.
Test [5] concerns HS 578T breast.
The test system of test [6] is HT29 colon.
Test [7] deals with MDA-MB-435.
In test [8] the test system is NCI-H460 lung.
Test [9] deals with NCI-H522 lung.
The test system of test [10] is PC-3 prostate.
Test [11] deals with RPMI-8226 leukemia.
For test [12], the system named is RXF 393 renal.
Test [13] relates to SF-295 CNS.
The subject of test [14] is SK-MEL-5 melanoma.
In test [15] the test system is SNB-75 CNS.
The test system of test [16] is SR leukemia.
In test [17] the test system is U251 CNS.
Test [18] relates to UO-31 renal.

For the compound `O=C1OCC(c2ccc(Cl)cc2)=C1Cl`, the TGI was above 100 µM in test [1]; 75.6 µM in test [2]; 70.4 µM in test [3]; 28.3 µM in [4]; above 100 µM in [5]; above 100 µM in test [6]. The TGI in test [7] was above 100 µM; in [8], 46.2 µM; in test [9], 35.9 µM; in [10] it was 67.9 µM; in test [11], 86.2 µM; in test [12], 54.1 µM. In addition, the TGI in test [13] was above 100 µM; in test [14] it was 31.5 µM; in test [15], above 100 µM; in test [16], 39.2 µM; in test [17] it was above 100 µM; in test [18] it was 33.9 µM.
On to `COc1ccccc1/C=C1\S/C(=N/Nc2nc(C)c(C(C)=O)s2)NC1=O`, for which the TGI in test [1] is 45.5 µM; in test [2], above 100 µM; in test [3], 46.2 µM; in [4] it was above 100 µM; in test [5], 70.1 µM; in test [6] it was above 100 µM. Also, the TGI was above 100 µM in test [7]; above 100 µM in [8]; above 100 µM in test [10]; 89.4 µM in test [11]; above 100 µM in test [12]; above 100 µM in [13]. Moreover, the TGI in test [14] was 47.7 µM; in test [15], 61 µM; in [16], above 100 µM; in [17], above 100 µM; in test [18], 90.4 µM.
As to `Nc1cc2ncnn2c(SCC(=O)N/N=C/C(Br)=C\c2ccccc2)n1`, the TGI is above 100 µM in test [2]; 41.1 µM in [3]; above 100 µM in test [4]; above 100 µM in test [5]; 28 µM in [6]; 30.9 µM in test [7]. The TGI in test [8] amounted to 53.5 µM; in test [9] it was 22.9 µM; in test [10], 27.7 µM; in [11] it was 50.1 µM; in test [12] it was 42.2 µM; in test [13], 67.7 µM. The TGI in test [14] was 26.2 µM; in test [15], above 100 µM; in [16] it was above 100 µM; in test [17], 20.7 µM; in test [18], 32 µM.
As for `O=C(O)CCCNc1ncc2c(n1)-c1ccccc1OC2`, the TGI in test [2], in test [3], in test [4], in test [5], in [6] and in test [7] was above 100 µM in each case. Further, the TGI in [8], in test [9], in test [10], in test [11], in test [12] and in [13] was above 100 µM in each case. Also, the TGI in test [14], in test [15], in test [16], in test [17] and in [18] was above 100 µM in each case.
For `O=[N+]([O-])c1cc(-[n+]2cc([O-])on2)ccc1Cl`, the TGI in test [2] is 62.4 µM; in test [3], above 100 µM; in [4], 39.8 µM; in [5], 31.3 µM; in test [6], 28.5 µM; in [7], above 100 µM. For the same compound, the TGI in test [8] was above 100 µM; in [9], 31.7 µM; in test [10] it was above 100 µM; in test [11], 79.8 µM; in [12], 27.9 µM; in test [13], 51.5 µM. Moreover, the TGI in [14] was 21.9 µM; in [15], 66.3 µM; in [16] it was above 100 µM; in test [17] it was 30.7 µM; in test [18] it was 31 µM.
For the compound `COc1ccc(N=Nc2ccc3oc(=O)c(C(=O)Nc4ccccc4C)cc3c2)cc1`, the TGI in [1], in test [3], in test [5], in [6], in test [7] and in test [8] was above 10 µM each time. The TGI in test [9], in test [10], in test [11], in [12], in test [13] and in test [14] was above 10 µM in each case. In addition, the TGI in test [15], in [16], in test [17] and in test [18] was above 10 µM in each case.
Take `COc1ccc2c(c1)C(OC)C1c3c(cc4c(c3-2)OCO4)CCN1C` (stereo unspecified): the TGI was 4.96 µM in test [1]; above 43.6 µM in [3]; above 71.7 µM in test [4]; 5.35 µM in test [5]; 14.1 µM in [6]; 13.1 µM in test [7]. Besides, the TGI worked out at 8.83 µM in [8]; 6.23 µM in test [9]; 9.34 µM in [10]; 20.6 µM in [11]; 6.43 µM in test [12]; 11.7 µM in [13]. In addition, the TGI in test [14] was 5.17 µM; in [15], 15.6 µM; in test [16], above 42.3 µM; in test [17], 18.9 µM; in [18], 4.59 µM.
`CCC1(CC)N=C(C(F)(F)F)c2cc(C(=O)C(F)(F)F)c3ccccc3c2N1`: the TGI in test [1] was determined as 35.3 µM; in test [2] it was 31.1 µM; in [3], 28.4 µM; in test [4], 16.1 µM; in test [5] it was 32.2 µM; in [6], 81.4 µM. Moreover, the TGI was above 100 µM in test [7]; 24.1 µM in [8]; 11.1 µM in test [9]; above 100 µM in [10]; 9.87 µM in test [12]; 9.6 µM in test [13]. Also, the TGI in test [14] turned out to be 11.4 µM; in test [15], 23 µM; in test [16], 9.36 µM; in test [17] it was 23.6 µM; in [18], 16.9 µM.
